These results are taken from patent US4769378A, “Indenopyrimidine aromatase inhibitors” (Eli Lilly and Company, priority 1986, dated 1988).

Like-named read-outs stand apart in the source and are kept apart here.

In one assay the target is T1, aromatase (Rattus norvegicus, UniProt P22443).
T1 construct: ovarian microsomes are obtained from rats treated with pregnant mares serum gonadotropin; from tissue; host or cells: rat ovary microsomes (rats treated with pregnant mares serum gonadotropin)
T1 sequence (P22443 1-508): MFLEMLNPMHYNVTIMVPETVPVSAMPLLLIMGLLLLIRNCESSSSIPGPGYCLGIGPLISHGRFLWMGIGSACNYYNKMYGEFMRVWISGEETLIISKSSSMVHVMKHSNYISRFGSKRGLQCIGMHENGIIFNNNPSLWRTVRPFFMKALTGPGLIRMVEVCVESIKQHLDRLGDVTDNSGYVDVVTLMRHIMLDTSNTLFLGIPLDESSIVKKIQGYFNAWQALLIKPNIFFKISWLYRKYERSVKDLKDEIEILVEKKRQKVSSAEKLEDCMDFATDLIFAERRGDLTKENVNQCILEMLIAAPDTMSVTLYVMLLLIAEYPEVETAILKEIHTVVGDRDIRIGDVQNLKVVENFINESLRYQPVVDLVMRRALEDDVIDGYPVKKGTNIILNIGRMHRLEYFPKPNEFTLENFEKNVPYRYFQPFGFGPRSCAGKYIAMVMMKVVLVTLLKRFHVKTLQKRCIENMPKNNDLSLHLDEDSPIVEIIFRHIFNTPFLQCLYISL
Put plainly: Aromatase inhibition in the rat ovarian microsome assay. The class given is biochemical. The note with it: substrate (androstenedione) concentration 0.1 μM; rat ovarian microsomes; read-out: EC50 (concentration of compound required to achieve 50% inhibition of aromatase activity). The protocol: In this test system, ovarian microsomes are obtained from rats treated with pregnant mares serum gonadotropin. Test compounds are added to reaction vials containing 0.1 μM 4-androstene-3,17-dione, 100,000 dpm 1,2[^3 H]-androstenedione, the microsomes and a NADPH generating system. The concentrations of the inhibitors tested ranged between 5 and 10000 nM. […] Potency is determined based on the concentration of inhibitor in nM required to produce a 50% inhibition of enzyme activity (EC50) when the concentration of substrate (androstenedione) is 0.1 μM.

In assay [1] the test system is Estrogen synthesis (aromatization). Put plainly: Estrogen Synthesis Inhibition in Rats.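 For Uterine Wt. %: 100% equals the stimulated control's weight gain over the unstimulated control.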 The note with it: Rattus norvegicus, po, 168 h, gavage; for response vs control in vivo at 3 mg/kg: 3 mg/kg × 7 days; for response vs control in vivo at 30 mg/kg: 30 mg/kg × 7 days. The class given is in vivo, immature female Wistar rats. As to the method: By virtue of their ability to inhibit the enzyme aromatase, the compounds of this invention are able to inhibit the synthesis of estrogens in mammals, thereby making the compounds useful in the treatment of estrogen-dependent diseases, such as breast cancer.
Immature female Wistar rats (45-55 grams) were divided into control and test groups of 2-8 animals each. Test compounds were administered for seven days daily by gavage in corn oil. Control animals received corn oil without the test compound. Beginning on the fourth day of the test, all animals treated with the test compound and one half of the control animals were given a subcutaneous injection of 1.0 mg of testosterone propionate in corn oil. The remaining control animals received only an equivalent volume of corn oil. On the seventh day of the test, rats treated with testosterone propionate were injected subcutaneously with 100 μCi of [^3 H]-testosterone in 50 μl of saline-ethanol (3:1).
After two hours, the animals were killed by decapitation. Uteri were isolated, trimmed of extraneous connective tissue, and weighed. […] In the control animals treated with testosterone propionate, estrogens produced by aromatization stimulated the uterus resulting in an increase in weight.
Ovaries from rats treated with [^3 H]-testosterone were excised, cleaned of extraneous tissue, and homogenized in 2.5 ml of a 1.0 mM potassium phosphate buffer containing 3.0 mM MgCl2.6H2 O, 320 mM sucrose, and 0.25% Triton X-100 (polyethylene glycol p-isooctyl phenyl ether, Rohm and Haas) at pH 6.5. The ovarian steroids were extracted with 1.5 ml of 9:1 toluene/ethanol to which had been added 25 to 100 mcg each of unlabelled estradiol, estriol, and estrone, and approximately 1000 dpm of [^14 C]-estradiol. The samples were vortexed, centrifuged at 500×g for 10 minutes, and the organic phase was transferred to a conical vial. Two additional extractions were performed on the residue in the same way. The pooled organic extracts were evaporated for subsequent thin-layer chromatography.
Ovarian proteins were precipitated by the addition of 5.0 ml of ethanol to the remaining aqueous phase. After an overnight incubation at 4° C., the samples were centrifuged at 1500×g for 10 minutes. The supernatant was discarded and the pellet was dissolved in 0.3 N potassium hydroxide. Protein was determined according to the method of Bradford, Analytical Biochemistry, 72, 248 (1976).
The organic residue from each above extraction was redissolved in 9:1 dichloromethane/methanol. The solution of each sample was applied to separate silica gel thin layer chromatography plates which contained a fluorescent indicator. The plates were developed the first dimension with 160:38:1.5:0.5 dichloromethane/ethyl acetate/methanol/acetic acid to within 3 cm of the top of the plate. After air-drying, the plate was developed in the second dimension with 180:19:1 dichloromethane/methanol/ammonium hydroxide. The plate was air-dried and viewed under 254 nm UV light.
The visible spots were marked and the plates were sprayed with primulin (0.001% in 4:1 acetone/water) according to the method of Wright, J. Chromatography, 59, 220 (1971) which allowed for the identification of additional steroids under 365 nm UV light. The spots were scraped from the plate using a glass wool plugged Pasteur pipet attached to a vacuum line. The steroids were eluted directly into scintillation vials by the addition of 0.2 ml of dichloromethane followed by two washes each of 2.0 ml of methanol. The organic solvent was evaporated and 10.0 ml of scintillation fluid (Beckman Ready Solv-NA) was added to the vials. Samples were analyzed by liquid scintillation spectrometry and the corrections were made based on the recoveries of the [^14 C]-steroid.
In Table 2, values for uterine weight are expressed as the respective weights of drug treated (DT), unstimulated corn oil control (UC), and stimulated corn oil control (SC) according to the calculation %=100 (DT-UC)/(SC-UC). […]

Setting [2] is: 100 (DT-UC)/(SC-UC), read-out: Uterine Wt. %.
The mark [3] stands for this setting: ovaries, percent of testosterone-treated controls, read-out: % steroid concentration, estradiol.
Setting [4] is: ovaries, percent of testosterone-treated controls, read-out: % steroid concentration, estrone.

On to `FC1(c2ccc(Cl)cc2)c2ccc(Cl)cc2-c2ncncc21` (stereo not drawn) [Example 28, 8-chloro-5-(4-chlorophenyl)-5-fluoro-5H-indeno[1,2-d]pyrimidine], for which, on aromatase, the EC50 was 35 nM. Take `COc1ccc2c(c1)C(O)(c1ccc(Cl)cc1)c1cncnc1-2` (stereo not drawn) [Example 20, 5-(4-chlorophenyl)-7-methoxy-5H-indeno[1,2-d]pyrimidin-5-ol]: the EC50 on aromatase worked out at 420 nM. As to `CC(=O)NC1(c2ccc(Cl)cc2Cl)c2ccccc2-c2ncncc21` (stereo not drawn) [Example 25, N-[5-(2,4-dichlorophenyl)-5H-indeno[1,2-d]pyrimidin-5-yl]acetamide], the EC50 on aromatase worked out at 500 nM. As to `Clc1ccc(C2(Cl)c3ccc(Cl)cc3-c3ncncc32)cc1` (stereo not drawn) [Example 27, 5,8-dichloro-5-(4-chlorophenyl)-5H-indeno[1,2-d]pyrimidine], the EC50 at aromatase amounted to 72 nM.

For `ClC1(c2ccccc2)c2ccccc2-c2ncncc21` (stereo not drawn) [Example 26, 5-chloro-5-phenyl-5H-indeno[1,2-d]pyrimidine], at aromatase, the EC50 is 118 nM. The same measure, in the same setting: next, `CC(=O)NC1(c2ccc(Cl)cc2)c2ccc(Cl)cc2-c2ncncc21` (stereo not drawn) [Example 23, N-[8-chloro-5-(4-chlorophenyl)-5H-indeno[1,2-d]pyrimidin-5-yl]acetamide]: 265 nM. Same read-out and setting: in the case of `c1ccc(C2c3ccccc3-c3ncncc32)cc1` (stereo not drawn) [Example 7, 5-phenyl-5H-indeno[1,2-d]pyrimidine] it was 84 nM; in that of `Clc1ccc(Cl)c(C2c3ccccc3-c3ncncc32)c1` (stereo not drawn) [Example 10, 5-(2,5-dichlorophenyl)-5H-indeno[1,2-d]pyrimidine], 84 nM.

Regarding `Fc1ccc(C2c3ccc(C(F)(F)F)cc3-c3ncncc32)cc1` (stereo not drawn) [Example 4, 5-(4-fluorophenyl)-8-(trifluoromethyl)-5H-indeno[1,2-d]pyrimidine], the EC50 at aromatase amounted to 27 nM. Besides, in assay [1] (setting [2]), the response vs control in vivo at 3 mg/kg was -14.3% and the response vs control in vivo at 30 mg/kg was -35.5%. `Fc1ccccc1C1c2ccccc2-c2ncncc21` (stereo not drawn) [Example 14, 5-(2-fluorophenyl)-5H-indeno[1,2-d]pyrimidine]: the EC50 on aromatase amounted to 86 nM. As for `OC1(c2ccccc2Cl)c2ccc(Cl)cc2-c2ncncc21` (stereo not drawn) [Example 22, 8-chloro-5-(2-chlorophenyl)-5H-indeno[1,2-d]pyrimidin-5-ol], the EC50 on aromatase turned out to be 50 nM. In addition, the response vs control in vivo at 3 mg/kg in assay [1] (setting [2]) amounted to 70%; in assay [1] (setting [3]), 79.4%; in assay [1] (setting [4]), 73.4%. Also, the response vs control in vivo at 30 mg/kg in assay [1] (setting [2]) was determined as 57.4%; in assay [1] (setting [3]), 40.8%; in assay [1] (setting [4]) it was 90.1%. Regarding `COc1ccc2c(c1)C(c1ccc(F)cc1)c1cncnc1-2` (stereo not drawn) [Example 13, 5-(4-fluorophenyl)-7-methoxy-5H-indeno[1,2-d]pyrimidine], at aromatase, the EC50 was 61 nM. With `Clc1ccc2c(c1)-c1ncncc1C2c1ccccc1` (stereo not drawn) [Example 3, 8-chloro-5-phenyl-5H-indeno[1,2-d]pyrimidine], the EC50 at aromatase was 21 nM. Consider `OC1(c2ccc(F)cc2)c2ccccc2-c2ncncc21` (stereo not drawn) [Example 21, 5-(4-fluorophenyl)-5H-indeno[1,2-d]pyrimidin-5-ol], for which the EC50 at aromatase was < 50 nM. Also, the response vs control in vivo at 3 mg/kg turned out to be 46.4% in assay [1] (setting [2]), 14.5% in assay [1] (setting [3]) and 83.8% in assay [1] (setting [4]). Further, the values for the response vs control in vivo at 30 mg/kg in assay [1] (setting [2]), in assay [1] (setting [3]) and in assay [1] (setting [4]) were 17.9%, 8.8% and 71.3%, respectively. Turning to `COc1ccc2c(c1)C(c1ccc(Cl)cc1)c1cncnc1-2` (stereo not drawn) [Example 12, 5-(4-chlorophenyl)-7-methoxy-5H-indeno[1,2-d]pyrimidine], on aromatase, the EC50 worked out at 128 nM. With `OC1(c2ccc(Cl)cc2)c2ccc(Cl)cc2-c2ncncc21` (stereo not drawn) [Example 18, 8-chloro-5-(4-chlorophenyl)-5H-indeno[1,2-d]pyrimidin-5-ol], on aromatase, the EC50 is 26 nM. Moreover, the response vs control in vivo at 3 mg/kg in assay [1] (setting [2]) came out at 30.4%; in assay [1] (setting [3]), 16.8%; in assay [1] (setting [4]), 89%. Further, the results for the response vs control in vivo at 30 mg/kg in assay [1] (setting [2]), in assay [1] (setting [3]) and in assay [1] (setting [4]) were -7.7%, 7.5% and 77%, respectively. As for `Clc1ccc(C2c3ccccc3-c3ncncc32)c(Cl)c1` (stereo not drawn) [Example 8, 5-(2,4-dichlorophenyl)-5H-indeno[1,2-d]pyrimidine], the EC50 at aromatase came out at 63 nM.

On to `COc1ccc2c(c1)-c1ncncc1C2c1cccc(Cl)c1` (stereo not drawn) [Example 16, 5-(3-chlorophenyl)-8-methoxy-5H-indeno[1,2-d]pyrimidine], for which the EC50 at aromatase is < 50 nM. Take `Fc1ccc2c(c1)-c1ncncc1C2c1ccc(C(F)(F)F)cc1` (stereo not drawn) [Example 5, 8-fluoro-5-[4-(trifluoromethyl)phenyl]-5H-indeno[1,2-d]pyrimidine]: the EC50 on aromatase was 50 nM. Also, in assay [1] (setting [2]), the response vs control in vivo at 3 mg/kg is 47.3% and the response vs control in vivo at 30 mg/kg turned out to be 22.8%. Turning to `Fc1ccc(C2c3ccccc3-c3ncncc32)cc1` (stereo not drawn) [Example 15, 5-(4-fluorophenyl)-5H-indeno[1,2-d]pyrimidine], the EC50 at aromatase was < 50 nM. On to `Clc1ccc(C2c3ccccc3-c3ncncc32)cc1Cl` (stereo not drawn) [Example 11, 5-(3,4-dichlorophenyl)-5H-indeno[1,2-d]pyrimidine], for which the EC50 on aromatase is < 50 nM. As for `Fc1cccc(C2c3ccccc3-c3ncncc32)c1` (stereo not drawn) [Example 9, 5-(3-fluorophenyl)-5H-indeno[1,2-d]pyrimidine], the EC50 on aromatase was < 50 nM. In the case of `Fc1ccc2c(c1)C(c1ccccc1F)c1cncnc1-2` (stereo not drawn) [Example 17, 7-fluoro-5-(2-fluorophenyl)-5H-indeno[1,2-d]pyrimidine], the EC50 at aromatase is 750 nM.
